According to patent US11351142B2, “Composition and method for treating neuronal ceroid lipofuscinosis” (Rush University Medical Center, priority 2012, dated 2022):

Legend:
[1] = system: CLN2 (−/−) mouse; assay: Survival (Kaplan-Meier) of CLN2 (−/−) mice; format: in vivo; conditions: oral 7.5 mg/kg body weight/day from 4 weeks of age
Excerpt: Treatment was started from 4 weeks of age for all groups. Methyl cellulose was used as vehicle. Top panel: Schematic representation of experiments performed. Bottom panel: Kaplan-Meier plot for percentage survival of treated vs. vehicle or untreated animals.

[2] = system: Cln2 mRNA; assay: Cln2 mRNA expression by RT-PCR and real-time PCR in human primary astrocytes; format: cell-based
Method: Primary human astroglia were prepared as described (20,21). […] Briefly, 11- to 17-week-old fetal brains obtained from the Human Embryology Laboratory (University of Washington, Seattle, Wash., USA) were dissociated by trituration and trypsinization. On 9th day, these mixed glial cultures were placed on a rotary shaker at 240 rpm at 37° C. for 2 h to remove loosely attached microglia. On 11th day, the flasks were shaken again at 190 rpm at 37° C. for 18 h to remove oligodendroglia. The attached cells remaining were primarily astrocytes. These cells were trypsinized and subcultured in complete media at 37° C. with 5% CO2 in air to yield more viable and healthy cells. […] Semi-quantitative RT-PCR was carried out as described earlier (24) using oligo (dT) 12-18 as primer and moloney murine leukemia virus reverse transcriptase (MMLV-RT, Invitrogen) in a 20 μl reaction mixture. The resulting cDNA was appropriately amplified using Promega Master Mix (Madison, Wis.) and the following primers (Invitrogen) for murine genes: The mRNA quantification was performed using the ABI-Prism7700 sequence detection system (Applied Biosystems, Foster City, Calif.) using iTaq™ Fast Supermix With ROX (Bio-Rad, Hercules, Calif.) and the following 6-FAM/ZEN/IBFQ-labeled primers for murine genes: Cln2 and Gapdh (Integrated DNA Technologies Coralville, Iowa). […]

[3] = system: TPP1; assay: Immunofluorescence for TPP1 in mouse primary astrocytes; format: cell-based
Method: Astroglia were isolated from mixed glial cultures as described (17,18) according to the procedure of Giulian and Baker (19). Briefly, on day 9, the mixed glial cultures were washed three times with Dulbecco's modified Eagle's medium/F-12 and subjected to shaking at 240 rpm for 2 h at 37° C. on a rotary shaker to remove microglia. After 2 days, the shaking was repeated for 24 h for the removal of oligodendroglia and to ensure the complete removal of all nonastroglial cells. The attached cells were seeded onto new plates for further studies. Immunocytochemistry was performed as described earlier (25). Briefly, 8 well chamber slides containing mouse primary astrocytes, mouse neurons, human primary astrocytes or SH-SY5Y cells were cultured to 70-80% confluence were fixed with chilled Methanol (Fisher Scientific, Waltham, Mass.) overnight, followed by two brief rinses with filtered PBS. Samples were blocked with 2% BSA (Fisher Scientific) in PBS containing Tween 20 (Sigma) and Triton X-100 (Sigma) for 30 min and incubated at room temperature under shaking conditions for 2 hr in PBS containing the following anti-mouse primary antibodies: […] Santa Cruz Biotech, Santa Cruz, Calif.), GFAP, (1:100; Santa Cruz), and 3-tubulin (1:5000; Millipore). […] The samples were run in an EtOH and Xylene (Fisher) gradient, mounted and observed under Olympus BX41 fluorescence microscope.

[4] = biological target: T1, PPARα/RXRα heterodimer (Mus musculus, UniProt P23204+P28700); assay: Co-immunoprecipitation of PPARα and RXRα from nuclear extract of mouse astrocytes; format: cell-based; conditions: gemfibrozil (10 μM) and RA (0.5 μM) alone and in combination, 6 hrs
T1 construct: endogenous in cells; host or cells: mouse primary astrocytes (nuclear extract)
T1 sequence (P23204 1-468): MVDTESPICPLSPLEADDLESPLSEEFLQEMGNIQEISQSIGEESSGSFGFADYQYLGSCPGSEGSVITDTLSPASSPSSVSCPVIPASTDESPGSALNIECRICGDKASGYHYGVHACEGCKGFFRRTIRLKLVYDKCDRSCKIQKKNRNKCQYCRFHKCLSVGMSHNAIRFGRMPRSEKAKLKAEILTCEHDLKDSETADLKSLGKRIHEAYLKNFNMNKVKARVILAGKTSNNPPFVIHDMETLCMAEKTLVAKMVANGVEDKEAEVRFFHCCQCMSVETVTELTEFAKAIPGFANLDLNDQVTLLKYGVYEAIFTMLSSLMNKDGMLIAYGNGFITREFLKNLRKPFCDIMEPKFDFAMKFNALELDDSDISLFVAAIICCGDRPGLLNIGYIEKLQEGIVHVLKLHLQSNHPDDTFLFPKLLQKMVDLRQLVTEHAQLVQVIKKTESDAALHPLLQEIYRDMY
T1 sequence (P28700 1-467): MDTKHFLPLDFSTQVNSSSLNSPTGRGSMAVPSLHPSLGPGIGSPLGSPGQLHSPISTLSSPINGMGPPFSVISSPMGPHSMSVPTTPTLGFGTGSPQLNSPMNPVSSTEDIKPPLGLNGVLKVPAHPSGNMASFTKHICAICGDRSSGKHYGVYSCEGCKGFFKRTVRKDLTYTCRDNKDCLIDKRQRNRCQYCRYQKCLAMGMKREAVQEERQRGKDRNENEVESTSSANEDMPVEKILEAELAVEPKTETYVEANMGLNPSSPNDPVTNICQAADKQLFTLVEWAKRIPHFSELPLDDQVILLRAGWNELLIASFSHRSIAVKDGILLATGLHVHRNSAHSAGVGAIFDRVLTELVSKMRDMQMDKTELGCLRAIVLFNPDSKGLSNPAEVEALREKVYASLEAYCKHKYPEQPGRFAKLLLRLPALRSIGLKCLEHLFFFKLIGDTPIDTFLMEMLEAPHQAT
Method: After treatment, cells were washed with PBS, scraped into 1.5 mL tubes and centrifuged in 4° C. for 5 min at 500 rpm. The supernatant was aspirated and the pellet was resuspended in a membrane lysis buffer comprised of (4-(2-hydroxyethyl)-1-piperazineethanesulfonic acid) (HEPES, pH 8.0), MgCl2, KCl, dithiothreitol (DTT) and protease/phosphatase inhibitors, vortexed and centrifuged in 4° C. at 15,000 rpm for 3 minutes. Again, the supernatant was aspirated and the pellet was resuspended in a high salt, nuclear envelope lysis buffer comprised of HEPES (pH 8.0), MgCl2, glycerol, NaCl, ethylenediaminetetraacetic acid (EDTA), DTT and protease/phosphatase inhibitors, rotated vigorously in 4° C. for 30 min and centrifuged in 4° C. at 15,000 rpm for 15 minutes. The resultant nuclear pellet was resuspended in IP buffer and a fraction was kept separately as lysate. The remaining nuclear extract was then precleared with 25 ul of protein A-agarose (50%, v/v). The supernatants were immunoprecipitated with 5 ug of anti-RXRα or anti-PPARα or normal IgG (Santa Cruz Biotechnology, Inc.) overnight at 4 C, followed by incubation with protein A-agarose for 4 hrs at 4° C. Protein A-agarose-antigen-antibody complexes were collected by centrifugation at 12,000 rpm for 60 s at 4° C. […]

[5] = system: Cln2 mRNA; assay: Cln2 mRNA expression by semi-quantitative RT-PCR and real-time PCR in mouse primary astrocytes; format: cell-based
Method: Astroglia were isolated from mixed glial cultures as described (17,18) according to the procedure of Giulian and Baker (19). Briefly, on day 9, the mixed glial cultures were washed three times with Dulbecco's modified Eagle's medium/F-12 and subjected to shaking at 240 rpm for 2 h at 37° C. on a rotary shaker to remove microglia. After 2 days, the shaking was repeated for 24 h for the removal of oligodendroglia and to ensure the complete removal of all nonastroglial cells. The attached cells were seeded onto new plates for further studies. Total RNA was isolated from mouse primary astrocytes and human primary astrocytes using RNA-Easy Qiagen (Valencia, Calif.) kit following manufactures protocol. Semi-quantitative RT-PCR was carried out as described earlier (24) using oligo (dT) 12-18 as primer and moloney murine leukemia virus reverse transcriptase (MMLV-RT, Invitrogen) in a 20 μl reaction mixture. The resulting cDNA was appropriately amplified using Promega Master Mix (Madison, Wis.) and the following primers (Invitrogen) for murine genes: The mRNA quantification was performed using the ABI-Prism7700 sequence detection system (Applied Biosystems, Foster City, Calif.) using iTaq™ Fast Supermix With ROX (Bio-Rad, Hercules, Calif.) and the following 6-FAM/ZEN/IBFQ-labeled primers for murine genes: Cln2 and Gapdh (Integrated DNA Technologies Coralville, Iowa). The mRNA expression of the targeted genes was normalized to the level of Gapdh mRNA and data was processed by the ABI Sequence Detection System 1.6 software.

SMILES: Cc1ccc(C)c(OCCCC(C)(C)C(=O)O)c1 [gemfibrozil]
- life span (percentage survival, Kaplan-Meier) [1]: prolongs the life span
- increase in Cln2 mRNA levels, maximum of time course ([2]; 25 μM gemfibrozil, at 12 hrs): ~10 fold
- increase in Cln2 mRNA levels, maximum of dose response ([2]; 25 uM gemfibrozil, different concentrations for 12 hrs): ~15 fold
- TPP1 (immunofluorescence) ([3]; PPARα−/− astrocytes compared to WT and PPARβ−/− cells, 25 μM gemfibrozil and 10 μM fenofibrate, 24 hrs): little or no increase
- TPP1 protein (immunofluorescence) ([3]; mouse primary astrocytes, different concentrations): dose dependant increase
- PPARα in immunoblot after immunoprecipitation with RXR Ab [4]: increased abundance of PPARα
- RXR in immunoblot after immunoprecipitation with PPARα Ab, treated vs control [4]: increased presence of RXR
- Cln2 mRNA expression ([5]; PPARα−/− astrocytes, different concentrations, 24 hrs): little or no effect
- Cln2 mRNA expression in presence of PPARγ antagonist ([5]; WT astrocytes pre-treated with GW9662 for 30 min): increased expression
- Cln2 level (quantitative real time PCR) ([5]; astrocytes with RXRα knockdown (RXRα siRNA), gemfibrozil (10 μM), RA (0.5 μM) alone and in combination): almost unresponsive
- increase in Cln2 mRNA levels (quantitative real time PCR) ([5]; mouse primary astrocytes, 24 hrs, RA 0.5 μM, gemfibrozil 10 μM, combination 10 μM gemfibrozil and 0.5 μM RA): ~4 fold
- Cln2 mRNA levels (RT-PCR and qPCR) ([5]; mouse primary astrocytes, serum free media, different doses and time points, maximum increase at 24 hrs of 25 μM gemfibrozil): upregulated
